The values that follow come from the Kinase Knowledgebase extract (Sharma et al. 2016).

The IC50 is the concentration that gives 50% inhibition. Low readings indicate inhibition by little substance, high ones a need for much substance. By Ki is commonly meant the dissociation constant of the complex between target and ligand, obtained from inhibition or displacement. By cell viability is commonly meant a per cent measure of how many cells are alive, often set against a control. Usually T/C stands for the ratio of treated to control. Broadly, the GI50 is the concentration that inhibits growth by half. High values mean less potent growth inhibition, low ones more potent growth inhibition.

Assay [1] addresses EGFR (human) (UniProt P00533). Particulars: f/l herc cells.
For assay [2], the target named is EGFR (UniProt P00533).
Assay [3] concerns the target EGFR (murine) (UniProt P00533). Particulars: nih3t3.
Assay [4] addresses EGFR (human) (UniProt P00533). Particulars: a431.
Assay [5] concerns the target EGFR (human) (UniProt P00533). Particulars: a431. The source holds these as a separate data set.
The target of assay [6] is EGFR (human) (UniProt P00533). Particulars: a431. The source holds these as a separate data set.
Assay [7] deals with EGFR (UniProt P00533). This is another data set of the same source.
For assay [8], the target named is EGFR (human) (UniProt P00533). Particulars: a431, concentration not given here.
In assay [9] the target is MAP2K1;MAPK14 (human) (UniProt Q16539). Kind of assay: Inhibition of LOVO Cell Proliferation by MTT Assay.
The target is the same in assay [10]. Kind of assay: Inhibition of CaCO Cell Proliferation by MTT Assay. Particulars: caco-2.
The target in assay [11] is MAPK14 (UniProt Q16539). Kind of assay: In Vitro p38 Inhibition.
Assay [12] concerns the target CDK2 (UniProt P24941). Kind of assay: Enzyme Assay.
The target in assay [13] is CDK2 (UniProt P24941). Kind of assay: Enzyme Assay. This is another data set of the same source.
Assay [14] addresses EGFR (human) (UniProt P00533). Particulars: mkn45, concentration not given here.
Assay [15] concerns the target EGFR (murine) (UniProt P00533). Particulars: f/l-herc.
Assay [16] deals with EGFR (UniProt P00533). This is another data set of the same source.
A further assay has as its target CDK2 (human) (UniProt P24941). Kind of assay: Cell-Based Assay. Particulars: mcf-7.
Assay [17] has as its target MAPK14 (UniProt Q16539). Kind of assay: Inhibition of MAPK14 Kinase Activity.
For assay [18], the target named is EGFR (UniProt P00533). This is another data set of the same source.
The subject of a further assay is MAP2K1;MAPK14 (mice). Kind of assay: Inhibition of LOVO Cell Proliferation by Xenograft Model. Particulars: dose or concentration not given here.
Assay [19] addresses MAP2K1;MAPK14 (human) (UniProt Q16539). Kind of assay: Inhibition of LnCAP Cell Proliferation by MTT Assay.
For assay [20] the target is unchanged. Kind of assay: Inhibition of BXPC3 Cell Proliferation by MTT Assay. Particulars: bxpc-3 pancreatic.
For assay [21], the target named is MAPK14 (human) (UniProt Q16539). Kind of assay: Inhibition of MAPK14 Kinase Activity.
The target in assay [22] is EGFR (UniProt P00533). This is another data set of the same source.
The subject of another assay is MAPK14 (Balb/c mice). Kind of assay: Inhibition of LPS Induced TNF-alpha Release in Mice.
In another assay the target is CDK2;CDK1 (UniProt P24941). Kind of assay: Cell-Based Assay.
Assay [23] deals with EGFR (UniProt P00533). This is another data set of the same source.
The target in assay [24] is EGFR (UniProt P00533). This is another data set of the same source.
The target in assay [25] is CDK2 (UniProt P24941). Kind of assay: Enzyme Assay. The source holds these as a separate data set.
In the next assay the target is PIK3CA (UniProt P42336). Kind of assay: Inhibition of PIK3CA Kinase Activity.
Another assay concerns the target ROCK2 (UniProt O75116). Kind of assay: Inhibition of COS cell Derived Rho kinase (ROCKII).
Assay [26] addresses MAPK14 (human) (UniProt Q16539). Kind of assay: Inhibition of TNF-alpha Release from LPS Stimulated hPBMCs. Particulars: pbmc.

A value given as a limit tells only on which side of the number the result lay.

Chain of MAP2K1;MAPK14 (human) (Q16539 whole entry, looked up): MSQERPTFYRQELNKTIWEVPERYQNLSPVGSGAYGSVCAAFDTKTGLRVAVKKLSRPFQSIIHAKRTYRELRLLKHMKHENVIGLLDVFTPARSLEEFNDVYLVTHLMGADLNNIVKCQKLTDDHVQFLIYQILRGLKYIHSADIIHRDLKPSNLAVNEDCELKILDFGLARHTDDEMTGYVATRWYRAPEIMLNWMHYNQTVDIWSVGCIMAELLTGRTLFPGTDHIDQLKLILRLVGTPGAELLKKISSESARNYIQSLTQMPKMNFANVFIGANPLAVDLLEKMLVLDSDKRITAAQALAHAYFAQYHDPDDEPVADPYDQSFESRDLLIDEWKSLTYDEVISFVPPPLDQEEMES
Chain of MAPK14 (human) (Q16539 whole entry, looked up): as above
Chain of EGFR (P00533 whole entry, looked up): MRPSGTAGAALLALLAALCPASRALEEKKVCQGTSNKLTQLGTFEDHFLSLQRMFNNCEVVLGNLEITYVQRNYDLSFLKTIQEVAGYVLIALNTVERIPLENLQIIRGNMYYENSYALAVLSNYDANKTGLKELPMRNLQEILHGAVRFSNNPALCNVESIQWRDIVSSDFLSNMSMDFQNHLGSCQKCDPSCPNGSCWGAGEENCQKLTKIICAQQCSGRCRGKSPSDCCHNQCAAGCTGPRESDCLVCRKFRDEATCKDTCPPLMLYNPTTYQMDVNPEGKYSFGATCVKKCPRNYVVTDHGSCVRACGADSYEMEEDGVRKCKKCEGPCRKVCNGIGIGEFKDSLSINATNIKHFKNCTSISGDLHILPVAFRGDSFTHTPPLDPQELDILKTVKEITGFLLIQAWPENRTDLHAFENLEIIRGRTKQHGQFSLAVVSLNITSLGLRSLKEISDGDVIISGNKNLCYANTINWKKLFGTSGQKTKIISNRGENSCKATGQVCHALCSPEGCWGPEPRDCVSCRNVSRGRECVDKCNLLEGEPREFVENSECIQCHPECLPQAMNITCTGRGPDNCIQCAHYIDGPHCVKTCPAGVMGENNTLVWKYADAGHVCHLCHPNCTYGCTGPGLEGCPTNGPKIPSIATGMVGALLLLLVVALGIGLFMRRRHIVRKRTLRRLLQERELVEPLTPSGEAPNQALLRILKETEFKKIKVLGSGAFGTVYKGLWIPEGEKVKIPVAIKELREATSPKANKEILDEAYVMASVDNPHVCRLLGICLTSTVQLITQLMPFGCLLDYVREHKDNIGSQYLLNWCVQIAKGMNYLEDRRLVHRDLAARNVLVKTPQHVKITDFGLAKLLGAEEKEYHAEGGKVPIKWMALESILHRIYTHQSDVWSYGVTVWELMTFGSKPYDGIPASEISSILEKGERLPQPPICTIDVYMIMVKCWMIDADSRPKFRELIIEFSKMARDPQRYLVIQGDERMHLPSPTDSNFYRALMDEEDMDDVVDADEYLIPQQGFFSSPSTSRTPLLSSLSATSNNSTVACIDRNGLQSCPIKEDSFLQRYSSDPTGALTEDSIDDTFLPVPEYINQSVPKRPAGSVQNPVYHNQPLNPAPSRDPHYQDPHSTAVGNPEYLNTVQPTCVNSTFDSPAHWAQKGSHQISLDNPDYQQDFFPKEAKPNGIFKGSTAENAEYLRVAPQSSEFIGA
Chain of EGFR (human) (P00533 whole entry, looked up): as above
Chain of MAPK14 (Q16539 whole entry, looked up): as the sequence (Q16539 whole entry, looked up) above
Chain of EGFR (murine) (P00533 whole entry, looked up): as the sequence (P00533 whole entry, looked up) above

`CCOC(=O)CN1CCN(C/C=C/C(=O)Nc2cc3c(Nc4ccc(F)c(Cl)c4)ncnc3cc2OCCC2CC2)CC1`: the IC50 against EGFR (human) [1] stood at 0.017 µM.

Turning to `N#C/C(=C\c1ccc(O)c(O)c1)C(=O)NCCCCc1ccccc1`, the IC50 on EGFR [2] is 5 µM.

Consider `NS(=O)(=O)c1ccc2c(c1)/C(=C/C1=CC3=C(CCCC3)C1)C(=O)N2`, for which the IC50 with EGFR (murine) [3] is > 100 µM.

As for `C/C(=C/c1cc2c(N)nc(N)nc2o1)c1ccc2ccccc2c1`, the IC50 against EGFR (human) [4] and on EGFR (human) [5] was > 50 µM in each case.

For `N#C/C(=C\c1ccc(O)c(O)c1)C(N)=O`, the Ki at EGFR (human) [6] stood at 3.5 µM. Moreover, the IC50 on EGFR [7] is > 1000 µM.

As for `C=CC(=O)Nc1ccc2ncnc(Nc3ccc(OCc4ccccc4)cc3)c2c1`, the activity on EGFR (human) [8] worked out at 0%.

For the compound `C=CC(=O)Nc1ccc2ncnc(Nc3ccc(Oc4ccccc4)cc3)c2c1`, the activity on EGFR (human) [8] stood at 0%.

As to `COc1cc2c(Nc3ccc(Sc4nccn4C)c(Cl)c3)c(C#N)cnc2cc1OCCC[N+]1([O-])CCSCC1`, the IC50 in the assay with MAP2K1;MAPK14 (human) [9] is 0.036 µM; in the assay with MAP2K1;MAPK14 (human) [10], > 1 µM.

For `O=C(CNS(=O)(=O)c1ccc(CNC(=O)c2ccc(Cl)cc2)s1)NCCNc1ccc(C(F)(F)F)cn1`, on MAPK14 [11], the IC50 was > 30 µM.

On to `Cn1c2ccccc2c2cc[n+]3c(c21)C(=O)c1ccccc1-3`, for which the IC50 on CDK2 [12] and against CDK2 [13] was > 100 µM throughout.

With `Nc1c2c(nc3ccccc13)-c1cccnc1CC2`, the cell viability at EGFR (human) [14] was > 90%.

In the case of `O[C@H]1CC[C@H](Nc2ncc3ncnc(Nc4ccc5c(c4)-c4ccccc4C5)c3n2)CC1`, in the assay with EGFR (murine) [15], the IC50 is > 10 µM.

As for `COCCNS(=O)(=O)c1ccc(Nc2nccc(-c3cnc4cccnn34)n2)cc1`, the IC50 is > 10 µM on EGFR [16], 0.39 µM against CDK2 (human) and > 10 µM against MAPK14 [17].

Regarding `Cc1cc(C(=O)N2CCOCC2)[nH]c1/C=C1/C(=O)Nc2ncnc(N3CCCCC3)c21`, at EGFR [18], the IC50 was > 20 µM.

In the assay with MAP2K1;MAPK14 (mice), `CCN1CCN(CCCOc2cc3ncc(C#N)c(Nc4ccc(Sc5nccn5C)c(Cl)c4)c3cc2OC)CC1` displayed a T/C of 44%. Moreover, the IC50 stood at 0.045 µM with MAP2K1;MAPK14 (human) [19] and 0.007 µM with MAP2K1;MAPK14 (human) [20].

Regarding `O=CN/C=C/c1cc(O)ccc1O`, the IC50 on EGFR [7] is 5 µM.

Regarding `Nc1c2ccccc2nc2c1ccc1ncccc12`, the cell viability at EGFR (human) [14] is > 90%.

Regarding `O=C(CCCNc1ncc(C(F)(F)F)cc1Cl)NNS(=O)(=O)c1ccc(CNC(=O)c2ccc(Cl)cc2)s1`, the IC50 against MAPK14 (human) [21] and at EGFR [22] was > 10 µM throughout.

For the compound `CONC(=O)c1ccc(C)c(Nc2nc(N(C)CC(C)(C)C)nc(N3CCCN(C)CC3)n2)c1`, in the assay on MAPK14 (Balb/c mice), the ED50 result is reported as “Between 3 to 10 mg kg-1”. The same compound yielded a Ki at MAPK14 (human) [21] of 0.0042 µM.

Regarding `Cn1cnc2c(OCC3CCCCC3)nc(N)nc21`, in the assay with CDK2;CDK1, the GI50 is > 100 µM.

Compound `Brc1cccc(Nc2ncnc3cc4c(cc23)OCCO4)c1` showed a concentration for half-maximal inhibition (IC50) against EGFR [23] of 6 pM.

On EGFR [24], `COc1cccc(-c2cn(-c3ccc(CC(=O)NCCO)cc3)c3ncncc23)c1` came in with an IC50 of 0.8 µM.

`O=C1c2ccccc2-[n+]2ccc3c([nH]c4ccccc43)c21`: the IC50 on CDK2 [12] was > 50 µM; against CDK2 [13], > 50 µM; against CDK2 [25], > 250 µM.

Consider `COc1ccc(-c2cc(=O)cc(N3CCOCC3)o2)cc1`, for which the IC50 against PIK3CA is > 50 µM.

The compound `N=C(N)NC[C@H]1CC[C@H](C(=O)NC2=CC=NC3NN=CC23)CC1` (stereo partly drawn) showed an IC50 against ROCK2 of 0.47 µM.

With `Cc1ccc(S(=O)(=O)Nc2ccc3c(c2)CNC(=O)N3c2c(Cl)cccc2Cl)cc1`, the IC50 on MAPK14 (human) [26] was > 10 µM.
